What was measured:
[1] = test system: natural pigmentation of the tail of SKH HR2 mice; experiment: Depigmenting activity on natural pigmentation, tail of non-irradiated SKH HR2 mice (clinical pigmentation score); type: in vivo; conditions: non-irradiated SKH HR2 mouse tail, hydroquinone 3%, adapalene 0.1% in acetone, topical, 5 days per week for 8 weeks, score 0 to -4
Description: The depigmenting activity is measured on the natural pigmentation after application of the test product to the tail of non-irradiated animals.
The treatment is carried out for 5 days per week for 8 weeks. […] On the days for irradiation, the treatment is applied after irradiation.
The evaluation is made by different clinical observations: once per week before irradiation, the pigmentation is evaluated by virtue of a score on a scale from 0 to 4. The distribution of the scores is the following: • −0: natural pigmentation • depigmentation scale: scores −1 to −4 • −1: light depigmentation • −2: moderate depigmentation • −3: marked depigmentation • −4: total depigmentation • pigmentation scale: scores 1 to 4 • 1: light pigmentation • 2: moderate pigmentation • 3: marked pigmentation • 4: intense pigmentation

[2] = test system: UV-induced pigmentation of the tail of SKH HR2 mice; conditions: SKH HR2 mouse tail irradiated with UV-B 90 mJ/cm^2 3 times per week for 8 weeks; hydroquinone 3%, adapalene 0.1% topical; score 1 to 4
Description: The depigmenting activity is measured on the natural pigmentation after application of the test product to the tail of non-irradiated animals. The anti-pigmenting activity is measured by the inhibition of the induction of the UV-induced pigmentation: the test product is applied to the tail of animals irradiated with UV-B. The treatment is carried out for 5 days per week for 8 weeks. […] On the days for irradiation, the treatment is applied after irradiation. The animals are irradiated 3 times per week for 8 weeks (Monday, Wednesday, Friday) at the dose of 90 mJ/cm^2 of UV-B. The evaluation is made by different clinical observations: once per week before irradiation, the pigmentation is evaluated by virtue of a score on a scale from 0 to 4. The distribution of the scores is the following: • −0: natural pigmentation • depigmentation scale: scores −1 to −4 • −1: light depigmentation • −2: moderate depigmentation • −3: marked depigmentation • −4: total depigmentation • pigmentation scale: scores 1 to 4 • 1: light pigmentation • 2: moderate pigmentation • 3: marked pigmentation • 4: intense pigmentation

SMILES	Depigmenting activity (effect on natural pigmentation) [1]	Anti-pigmenting activity (inhibition of UV-B-induced pigmentation) [2]	Depigmenting activity (effect on natural pigmentation) ([1]; listed as adapalene)
Oc1ccc(O)cc1 [hydroquinone]	statistically significant depigmentation at the end of the study	anti-pigmenting effect at the 6th and at the 7th week (D50) which becomes less marked at the end of the study	–
COc1ccc(-c2ccc3cc(C(=O)O)ccc3c2)cc1C12CC3CC(CC(C3)C1)C2 [Adapalene, 6-[3-(1-adamantyl)-4-methoxyphenyl]-2-naphthanoic acid]	does not modify the natural pigmentation	–	no depigmenting activity

— patent publication US20050163731A1, “Skin depigmenting compositions comprising adapalene and at least one depigmenting active agent” (GALDERMA RESEARCH & DEVELOPMENT, S.N.C., priority 2002, published 2005)
